PMC11061149, “Protein mimetic 2D FAST rescues alpha synuclein aggregation mediated early and post disease Parkinson’s phenotypes” (Nature Communications, 2024)
Values joined by “and” are separate entries in the source; they are usually repeats but may differ in a detail not shown here. Equal entries are not always repeated.

What was measured:
[1] = system: HEK293 cells stably expressing αS-A53T-YFP; assay: ProteoStat dye assay and confocal imaging, ligand post treatment, αS fibers templated intracellular aggregation; type: cell-based, human
Description: To test the antagonist activity of NS163 against intracellular αS aggregation, we utilized HEK293 cells, which stably express αS-A53T-YFP[23],[24],[50]. The endogenous monomeric αS-A53T-YFP template into fibers when transfected with exogenously added αS fibers in the presence of Lipofectamine 3000 (Fig. 3a)[23],[24],[50]. In this assay, preformed fibers of αS (5 µM monomer concentration) were introduced to the HEK cells, followed by the introduction of NS163 to the cells after 8 h, which is the time required for the internalization of aS fibers, as we have shown recently. The HEK cells were incubated for an additional […], which is the total time (24 h) required for the complete maturation of aS inclusions in the HEK cells. To test the effect of the NS163 on the intracellular inclusions (αS-A53T-YFP), we used confocal imaging and a ProteoStat dye-based assay recently developed in our lab[24]. […] NS163 was able to reduce the intracellular inclusions of αS by 76% and 90% at 10 µM and 25 µM, respectively, measured using the ProteoStat dye-based assay (Fig. 5h, +NS163). […] To test their antagonist activity against intracellular αS aggregation, we first determined the cell permeability of the tripyridyls using the PAMPA (Fig. 5a, Supplementary Fig. 18a). […]

αS fibers = target: T1, αS fibers (Homo sapiens, UniProt P37840); assay: Transmission electron microscopy (TEM) of αS solutions; type: biochemical
T1 construct: made in house; host or cells: E. coli BL21(DE3)
Description: Transmission Electron Microscopy was used to visualize protein assemblies after aggregation experiments as previously described. Briefly, aliquots (5 μL) of αS solutions (with or without ligands) were applied on glow-discharged carbon-coated 300-mesh copper grids for 2 min and dried using Kimwipes (Kimberly-Clark, Irving, TX). The copper grids were negatively stained for 1 min with uranyl acetate (0.75%, w/v). The micrographs were taken on an FEI Tecnai G2 Biotwin TEM at 80 kV accelerating voltages.

## Cc1ccc(NC(=O)c2ccc(NC(=O)c3ccc([N+](=O)[O-])c(NCCc4c[nH]c5ccccc45)n3)c(NCC3CCCCC3)n2)c(OCC(=O)O)n1 [NS132]
[1]; 5 μM αS fibers, ligand 10 uM added after 8 h
  ProteoStat dye intensity (raw), individual trials: 108 and 126 and 118 and 122 and 111 and 132 and 128 and 121 and 105 and 116 and 120 and 113
[1]; ligand 10 µM added 8 h after 5 µM αS fibers
  reduction of intracellular inclusions of αS (ProteoStat): 47%
αS fibers; 100 µM αS aggregated for four days with ligand
  αS fibers seen in TEM images, in words: did not observe αS fibers
αS fibers; fibers-catalyzed aggregation of αS, 60 h, equimolar NS132
  αS fibers seen in TEM images, in words: significantly fewer αS fibers
